Measured values published in patent US12134769B2, “MicroRNA-198 as a tumor suppressor in ovarian cancer” (Baylor College of Medicine, priority 2011, dated 2024).
Where “and” joins values, the source holds several entries; their conditions need not be identical. Equal entries are not always repeated.

Tests used:
[1] = system: MIA-MSLN cells; assay: Monolayer wound healing assay; type: cell-based, human; details: miR-198 overexpressed, all serum conditions tested
Text: (§1) For wound healing assay, wounds were created in confluent monolayer of cells with a sterile pipette tip in either 0%, 0.2%, 2%, or 5% FBS media, and wound healing was observed within the scrape line at different time points; representative fields for each cell line were photographed (Li et al., 2008, Bharadwaj).

[2] = system: AsPC1 cells; assay: Monolayer wound healing assay; type: cell-based, human; details: miR-198 overexpressed, all serum conditions tested
Text: as §1

[3] = system: HPDE cells; assay: Migration assay; type: cell-based; details: 72 h
Method: (§2) Cell migration was determined with a modified Boyden chamber assay as described previously (Li et al., 2008). For invasion assays, Matrigel basement membrane matrix (BD Biosciences) was used by adding 100 ul of 1 mg/ml Matrigel to the migration chamber inserts prior to plating of the cells (Li et al., 2008, Bharadwaj).

[4] = system: MIA-MSLN cells; assay: Subcutaneous pancreatic cancer mouse model; type: in vivo, nude mice
Method: (§3) All animal procedures were conducted under the guidelines approved by the Institutional Animal Care and Use Committee (IACUC). Cells (3×10^6) were inoculated into the right flank (s.c. model) or into the pancreas (orthotopic model) of 5 to 6-week-old male nude mice (NCI-Charles River) as previously described (Li et al., 2007). Tumor size was measured using a digital caliper and tumor volume was determined with the following formula: tumor volume (mm^3)=[length (mm)]×[width (mm)]2×0.52. For the orthotopic model, after 4 weeks all surviving mice were euthanized and evaluated macroscopically for the presence of orthotopic tumor and metastases in the abdominal cavity. Tumor spread was further visualized using a fluorescent filter to view GFP expression. The tumor nodules were explanted, counted, and weighed. Tumor tissues were stored in RNAse Later solution (Ambion) in −80° for subsequent RNA/miRNA isolation and analysis.

[5] = system: MIA-MSLN cells; assay: Invasion assay across Matrigel; type: cell-based, human; details: 36 h after miR-198 precursor transfection
Method: as §2
(§4) An invasion assay was performed as described for the migration assay. For invasion, Matrigel basement membrane matrix (BD Biosciences) was used by adding 100 μl of 1 mg/ml Matrigel to the migration chamber inserts prior to plating of the cells.

[6] = system: AsPC1 cells; assay: Invasion assay across Matrigel; type: cell-based, human; details: AsPC1 cells following miR-198 overexpression
Method: as §2, §4

[7] = system: MIA-MSLN cells; assay: Migration, modified Boyden chamber assay; type: cell-based, human
Method: as §2

[8] = system: AsPC1 cells; assay: Migration, modified Boyden chamber assay; type: cell-based, human; details: stable miR-198 overexpression in AsPC1 cells, FIG. 14D
Method: as §2

[9] = system: MIA-MSLN cells; assay: Orthotopic pancreatic cancer mouse model; type: in vivo, nude mice
Method: as §3

[10] = system: MSLN CDS; assay: Dual-luciferase reporter assay, MSLN CDS constructs; type: cell-based, human; details: in the presence of miR-198
Text: For MSLN, six constructs were generated: 400 or 600 bp segments containing the WT sequence or specific 3-nucleotide mutations in the seed region of each miR-198 binding site were synthesized by GenScript and subcloned into the pEZX-MT01 3′UTR construct from Genecopoeia at Xba1 and BamH1 restriction sites such that they were inserted after the luciferase gene (FIG. 10). The same process was used for the VCP reporter constructs containing the full-length VCP 3′UTR (FIG. 10).
Dual luciferase assays were performed according to the manufacturer's instruction. Luciferase expression analysis was performed at 24 h using the Dual-luciferase kit (Promega) and Sirius Luminometer (Berthold Detection System). Results are presented as the ratio of firefly to Renilla luciferase activities, normalized to controls.

[11] = system: MIA-MSLN cells; assay: Apoptosis assay (TUNEL, caspase 3 western) after TNF-α; type: cell-based, human
Method: Apoptosis induction was determined using western blotting for Caspase 3 cleavage and confirmed by labeling DNA breaks using a terminal deoxynucleotidyltransferase dUTP nick end labeling (TUNEL) assay with the APO-DIRECT Kit (BD Biosciences) following 96 h of treatment (24 h serum starvation followed by 72 h of treatment with 20 ng/ml of TNF-α). Briefly, cells were plated in either 10% FBS media or serum-starved for 96 h, at which time 1×10^6 cells were harvested using trypsin-EDTA. After centrifugation, the pellets were washed twice with PBS, then resuspended in 1% paraformaldehyde in PBS and incubated on ice for 45 minutes. After several washes, the cell pellet again was resuspended in PBS/ethanol, incubated on ice for 30 minutes, and stored at −20° C. Cell samples were then pelleted, washed, and resuspended in 50 μL of DNA labeling solution containing a reaction buffer, terminal deoxynucleotidyl transferase enzyme, FITC-labeled deoxyuridine triphosphate nucleotides, and distilled water. After a 60-minute incubation at 37° C., cells were again washed, pelleted, and resuspended in 500 μl of propidium iodine/RNase staining buffer. Samples were then analyzed by flow cytometry (fluorescence-activated cell sorting) using a FACSCalibur (Becton Dickinson, Franklin Lakes, NJ). Data was further analyzed using the software FLOWJOW ver. 6.1.1 (Tree Star Inc.).

Substance: miR-198: microRNA-198, SEQ ID NO: 1 gguccagaggggagauagg; used as transfected precursors (Ambion) or Lenti-miR stable overexpression (GGUCCAGAGGGGAGAUAGG; listed as RNA, chemistry not given here; listed as Homo sapiens)
- wound closure rate [1]: reduced wound closure rate
- wound closure rate [2]: reduced wound closure rate
- migration [3]: did not seem to have an effect
- mice that developed tumors ([4]; s.c. MIA-MSLN-miR-198 cells): 3 of 9
- average tumor volume ([4]; s.c. MIA-MSLN-miR-198 cells, day 45 post injection, the three mice with tumors): 37 mm^3 and 36 mm^3
- mice with no signs of tumor development ([4]; s.c. miR-198 overexpressing cells, tumor-free for 45 days): 6/9
- first measurable tumors ([4]; s.c., the three mice that presented small tumors): 35 day post injection
- invasion reduced [5]: 24%
- invasion decreased [6]: ~50%
- migration reduced ([7]; 36 h after transient miR-198 transfection): 44%
- migration reduced ([7]; stable miR-198 overexpression, after 48 h): ~40%
- migration reduced [8]: 33%
- migration reduced ([8]; listed as MiR-198): > 50%
- average primary tumor weight ([9]; orthotopic MIA-MSLN-miR-198 cells, after 4 weeks): 0.06 g
- metastases ([9]; orthotopic MIA-MSLN-miR-198 injected mice, 8 mice): Four of the eight mice had no metastases
- jaundice, weight loss, and abdominal ascitic fluid ([9]; orthotopic, mice injected with high miR-198 cells): none of the mice injected with high miR-198 cells had these symptoms
- decrease in firefly luciferase expression, MSLN CDS site 2 WT construct [10]: almost completely
- decrease in firefly luciferase expression, MSLN CDS site 3 WT construct [10]: ~70%
- decrease in firefly luciferase expression, MSLN CDS site 1 construct ([10]; not statistically significant): slight reduction
- increase in number of cells undergoing apoptosis over controls ([11]; MIA-MSLN-miR-198 cells, TUNEL after TNF-α treatment): > 60%
- caspase 3 cleavage ([11]; overexpression of miR-198 in MIA-MSLN cells, western blot): results in caspase 3 cleavage
